Assay [1] deals with T1, CYP24 (Homo sapiens, UniProt Q07973).
T1 construct: expressed in transfected cells
T1 sequence (Q07973 36-514): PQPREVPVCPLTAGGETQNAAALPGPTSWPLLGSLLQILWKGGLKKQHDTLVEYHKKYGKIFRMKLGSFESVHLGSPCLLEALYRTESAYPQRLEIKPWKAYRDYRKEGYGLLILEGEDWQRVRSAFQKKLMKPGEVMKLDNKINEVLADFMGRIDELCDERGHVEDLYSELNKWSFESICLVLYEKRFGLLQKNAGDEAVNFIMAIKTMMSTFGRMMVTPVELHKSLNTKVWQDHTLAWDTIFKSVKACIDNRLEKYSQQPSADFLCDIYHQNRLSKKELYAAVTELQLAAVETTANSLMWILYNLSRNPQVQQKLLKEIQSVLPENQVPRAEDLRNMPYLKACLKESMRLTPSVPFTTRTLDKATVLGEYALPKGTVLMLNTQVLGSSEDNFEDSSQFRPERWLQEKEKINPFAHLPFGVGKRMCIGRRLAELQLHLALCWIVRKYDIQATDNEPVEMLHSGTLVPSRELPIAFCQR
Put plainly: CYP24 enzyme assay (stable cell line V79-CYP24 cells). It counts as cell-based. The following applies: [3H-1β]-1α,25(OH)2D3 20 nM, 2 hours. Here is the method:
1. Preparation of Cell Suspension • On the day of the assay, washed the monolayer of V79-CYP24 cells once with 1×PBS buffer and then trypsinize for 5 min at room temperature (approx. 22° C.). Added 1×PBS. Collected cells into tube, centrifuged cells (500×g, 5 min) and resuspended in DMEM+1% BSA media.
2. Cell Plating • Added 150 μl of cell suspension to appropriately labelled wells of a 48-well plate. Incubated plate for 30 minutes at 37° C. in a humidified atmosphere containing 5% CO2 for adherence of cells to wells.
3. Compound Addition • Added 25 μl of inhibitor (10^−6 to 10^−9 M) and then after 10 min added 25 μl of substrate [^3H-1β]-1α,25(OH)2D3 (20 nM) for 2 hours at 37° C. in a humidified atmosphere containing 5% CO2. Both inhibitor and substrate were prepared in DMEM with 1% BSA media in the absence and presence of 100 μM DPPD.
4. Lipid Extraction and Counting • Added 500 μL of methanol to stop the reaction. Transferred to tube. Added 250 μl of dichloromethane and vortexed. Added 250 μl of dichloromethane and 250 μl of saturated KCL and vortexed. Centrifuged at 4000 rpm for 5 min. Triplicate 100 μl aliquots of aqueous fraction were mixed with 600 μl of scintillation fluid and the radioactivity was measured using a scintillation counter. All values were normalized for background. (iii) Results.

Assay [2] deals with T1, CYP24. Kind of assay: In vitro test of ability to inhibit specifically CYP24 (standard protocol). The following applies: ketoconazole as control standard. The assay is classed as cell-based.
Another assay deals with T2, VDR (Homo sapiens, UniProt P11473).
T2 construct: purchased Biomol
T2 sequence (P11473 1-427): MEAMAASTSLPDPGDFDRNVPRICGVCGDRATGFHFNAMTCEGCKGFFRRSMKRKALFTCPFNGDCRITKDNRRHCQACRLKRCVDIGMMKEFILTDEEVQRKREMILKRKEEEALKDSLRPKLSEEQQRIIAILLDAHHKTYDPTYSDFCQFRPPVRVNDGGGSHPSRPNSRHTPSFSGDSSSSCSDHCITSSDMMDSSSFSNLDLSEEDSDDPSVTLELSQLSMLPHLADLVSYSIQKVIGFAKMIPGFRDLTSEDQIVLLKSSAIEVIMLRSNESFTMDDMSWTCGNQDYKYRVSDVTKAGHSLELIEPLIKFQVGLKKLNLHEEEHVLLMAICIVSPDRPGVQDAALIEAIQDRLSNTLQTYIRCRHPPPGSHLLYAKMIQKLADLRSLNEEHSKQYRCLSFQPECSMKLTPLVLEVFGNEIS
Kind of assay: VDR binding assay. The following applies: B50: displacement of 50 percent [3H]-1,25(OH)2D3 from human recombinant VDR. Here is the method: 1. VDR 9.4 pmol/μl (human, recombinant, Biomol).
4. TEK300 • Tris-HCI 50 mM • EDTA 1.5 mM • KCI 300 mM Adjust pH to 7.4 (25° C.)
3. Preparation of 1.25(OH)2D3 and test compounds in ethanol
1 μl stock VDR in 2.5 ml TEDK300/Gelatin solution (500 μl/tube), (keep on ice)
• Label tubes according to the following chart, each in triplicate:
• Mixed all tubes via vortex and incubated at room temperature for 1 hour. Added 10 μL of 3H-1,25(OH)2D3 Working Dilution, mixed by vortex and incubated at room temperature for 1 hour 2. Sample processing • Thirty minutes before addition, put Charcoal/Dextran Solution on ice with continuous mixing. Added […] of Charcoal/Dextran Solution to each tube, mixed well and incubated on ice for 30 minutes. Centrifuged @ 2000 rpm for 10 minutes at 4° C. 3. Counting • Pipetted 100 μL of the upper, aqueous phase to a 24 well scintillation counting plate and added 600 μL scintillation fluid per well, covered and mixed well. Counted the plate using a scintillation counter for 5 min/sample. (iv) Calculations: • The amount of 1,25(OH)2D3 to displace 50 percent [^3H]-1,25(OH)2D3 from VDR was calculated as B50 for 1,25(OH)2D3. The VDR binding of other compounds was calculated as B50 relative to a value of 1 for 1,25(OH)2D3.

A further assay concerns MCF-7 cells. Kind of assay: [3H]-thymidine proliferation assay with MCF-7 cells. The assay is classed as cell-based. The following applies: together with calcitriol, three days, [3H]-thymidine 6 h. Here is the method: 1. Preparation of Cell Suspension • When MCF-7 cells were 70-80% confluent, aspirated growth media. Washed the cells with 1×PBS. Trypsinized with trypsin-EDTA from the plate, collected cells from the tissue culture flask, centrifuged (500×g, 5 min) and resuspended in growth media.
2. Cell Plating. • Counted the cells and adjusted the cell density to 25,000/ml. Added 200 μl per well in a 96 well plate. Incubated plate for 24 h at 37° C. in a humidified atmosphere plus 5% CO2. Aspirated used media and replaced with 150 μl per well with proliferation media.
3. Substrate Addition. • Added 25 μl of 1α,25(OH)2D3 (final concentration 10^−6 M, 10^−7 M, 10^−8 M, 10^−9 M, 10^−10 M, 10^−11 M) into each designated well. Added 25 μl of substrate (final concentration 10^−7 M, 5×10^−8 M, 10^−8 M or 10^−9 M) into each designated well. Incubated plates for 3 days at 37° C. in a humidified atmosphere plus 5% CO2.
4. ^3H-Thymidine incorporation. • Added ^3H-thymidine at 0.02 μCi per well and incubated at 37° C. in a humidified atmosphere plus 5% CO2 for 6 h.
5. Plate Harvesting. • Aspirated all media and washed cells with 1×PBS. Trypsinized cells for 30 min at 37° C. in a humidified atmosphere plus 5% CO2. Harvested cells onto a 96 well filter plate (Millipore) using a Tomtec Cell Harvestor, according to manufacturers instructions.
6. Scintillation Counting. • Added 25 μl of scintillation fluid per well. Counted the plate using a scintillation counter.

One may read the IC50 as the concentration needed to halve the response being measured.

In the case of `C[C@H](CCS(=N)(=O)c1ccccc1)[C@H]1CC[C@H]2/C(=C/C=C3C[C@@H](O)C[C@H](O)C3)CCC[C@]12C` (single isomer, unassigned) [I(i), 24-Phenyl Sulfoximine 19-Nor-Vitamin-D3], the half-maximal inhibitory concentration (IC50) on CYP24 [1] is 8.5 nM; at VDR, above 2000 nM. The “selective inhibition of CYP24” value at CYP24 [2] is recorded as “selectively inhibit”. Also, in the assay with MCF-7 cells, the “inhibition of proliferation of MCF-7 cells” value (from here on “inhibition … of MCF-7 cells”) is on record as “act to inhibit the proliferation”.

Regarding `C=C1/C(=C\C=C2/CCC[C@]3(C)[C@@H]([C@H](C)CCS(=N)(=O)c4ccccc4)CC[C@@H]23)C[C@@H](O)C[C@@H]1O` (single isomer, unassigned) [I(a)], the values for the IC50 on CYP24 [1] and at VDR were 4 nM and above 2000 nM, respectively. In the assay with MCF-7 cells, the “inhibition … of MCF-7 cells” value is recorded as “act to inhibit the proliferation”.

As to `C=C1/C(=C\C=C2/CCC[C@]3(C)[C@@H]([C@H](C)CCS(=O)(=NC)c4ccccc4)CC[C@@H]23)C[C@@H](O)C[C@@H]1O` (single isomer, unassigned) [I(e)], the values for the IC50 against CYP24 [1] and on VDR were 29 nM and above 2000 nM, respectively. Moreover, the “selective inhibition of CYP24” value on CYP24 [2] is “selectively inhibit”. In addition, the “inhibition … of MCF-7 cells” value in the assay with MCF-7 cells was “act to inhibit the proliferation”.

On CYP24 [1], `C=C1/C(=C\C=C2/CCC[C@]3(C)[C@@H]([C@H](C)CCS(=O)(=NC)c4ccccc4)CC[C@@H]23)C[C@@H](O)C[C@@H]1O` (single isomer, unassigned) [I(g)] returned a 50% inhibitory concentration (IC50) of 26 nM. The “selective inhibition of CYP24” value on CYP24 [2] was “selectively inhibit”. The “inhibition … of MCF-7 cells” value with MCF-7 cells was “act to inhibit the proliferation”.

Values taken from patent US7973024B2, “24-sulfoximine vitamin D3 compounds” (Cyctochroma Inc., priority 2002, dated 2011).
